# Measurements published in paper PMC2923778 (Journal of Molecular Biology, 2010).
# Target: T1, hSPSB1 (Homo sapiens, UniProt Q96BD6)
# T1 construct: hexahistidine (N, cleaved yes); made in house; host or cells: E. coli BL21(DE3)-R3-pRARE2
# T1 sequence (Q96BD6 24-233): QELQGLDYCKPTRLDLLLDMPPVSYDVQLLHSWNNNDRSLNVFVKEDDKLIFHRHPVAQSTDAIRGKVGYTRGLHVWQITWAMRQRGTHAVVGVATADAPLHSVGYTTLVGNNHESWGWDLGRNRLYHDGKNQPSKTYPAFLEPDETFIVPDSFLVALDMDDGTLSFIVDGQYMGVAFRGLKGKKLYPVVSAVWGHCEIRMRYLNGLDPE
# Assay: ITC of peptides with hSPSB1
# Conditions: 20 °C, 50 mM Hepes pH 7.4, 150 mM NaCl, 1 mM DTT, 100 μM peptide into 10 μM protein, ± error of curve fit, single binding site model
# Description: Human SPSB constructs lacking the SOCS box region [hSPSB1(24–233), SWISS-PROT accession number Q96BD6; hSPSB2(26–219), Q99619 and hSPSB4(28–233), Q96A44] were cloned into pNIC28-Bsa4 by ligation-independent cloning. Constructs were transformed into BL21(DE3)-R3-pRARE2 and expressed overnight at 18 °C with 0.5 mM IPTG added at OD600 = 0.5–0.8. hSPSB proteins were purified using Ni-Sepharose (GE Healthcare, UK), eluted by imidazole and subsequently cleaved from the N-terminal hexahistidine tag by addition of tobacco etch virus protease (although hSPSB2 was resistant to cleavage). Further purification was achieved by size-exclusion chromatography and finally anion-exchange chromatography in the case of hSPSB1.
# ITC measurements on mSPSB proteins were performed at 22 °C using a MicroCalorimetry System (MicroCal, Northhampton, MA). mSPSB1, mSPSB2, and mSPSB4 were prepared by dialyzing against 20 mM Tris, 150 mM sodium chloride, and 2.5 mM calcium chloride at pH 8.0. […] Dilution enthalpies were determined separately by titrating peptide into buffer and used to correct the enthalpies of the binding of protein and peptide. Data were analyzed using a single binding site model implemented in the Origin software package provided with the instrument.
structure (smiles),measurement,value
CC[C@H](C)[C@H](NC(=O)[C@H](Cc1ccc(O)cc1)NC(=O)[C@H](Cc1ccccc1)NC(=O)[C@H](CCC(=O)O)NC(=O)[C@H](CCCNC(=N)N)NC(=O)[C@H](CCCCN)NC(=O)[C@H](CCCNC(=N)N)NC(=O)[C@H](CCC(=O)O)NC(=O)[C@@H](NC(=O)[C@H](CC(=O)O)NC(=O)[C@H](CCC(=O)O)NC(=O)[C@@H](NC(=O)[C@@H](NC(=O)[C@H](CC(N)=O)NC(=O)[C@H](CC(N)=O)NC(=O)[C@H](CC(N)=O)NC(=O)[C@H](CC(N)=O)NC(=O)[C@H](CC(N)=O)NC(=O)[C@@H](NC(=O)[C@@H](N)CC(=O)O)[C@@H](C)CC)[C@@H](C)CC)C(C)C)C(C)C)C(=O)O [VASA],Kd,40 ± 5 nM
